Measurements from patent publication US8461083B2, “Herbicidal compounds” (Syngenta Limited, priority 2008, dated 2013).

Key:
Format in all cases: in vivo
[1] = tested on: Alopecurus myosuroides (ALOMY); test: Post-emergence herbicidal glasshouse test; conditions: post-emergence (sprayed after 8 days cultivation), evaluated after 13 days, 100=total damage to plant, 0=no damage to plant; for pest or weed control at 1000 g/ha: Alopecurus myosuroides, 312 h, read-out: POST Application ALOMY, damage to plant; for POST Application ALOMY, damage to plant: 1000 g/ha
In short: (§1)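 Rates of 1000 g/ha are applied as an acetone/water (50:50) spray with 0.5% Tween 20 to soil-sown pots, pre-emergence at day 1 or post-emergence at day 8. Percent damage is assessed after 13 days.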

[2] = tested on: Amaranthus retoflexus (AMARE); test: Post-emergence herbicidal glasshouse test; conditions: post-emergence (sprayed after 8 days cultivation), evaluated after 13 days, 100=total damage to plant, 0=no damage to plant; for pest or weed control at 1000 g/ha: Amaranthus retroflexus, 312 h, read-out: POST Application AMARE, damage to plant; for POST Application AMARE, damage to plant: 1000 g/ha
In short: as §1

[3] = tested on: Echinochloa crus-galli (ECHCG); test: Post-emergence herbicidal glasshouse test; conditions: post-emergence (sprayed after 8 days cultivation), evaluated after 13 days, 100=total damage to plant, 0=no damage to plant; for pest or weed control at 1000 g/ha: Echinochloa crus-galli, 312 h, read-out: POST Application ECHCG, damage to plant; for POST Application ECHCG, damage to plant: 1000 g/ha
In short: as §1

Setaria faberi (SETFA) [4] = test: Post-emergence herbicidal glasshouse test; conditions: post-emergence (sprayed after 8 days cultivation), evaluated after 13 days, 100=total damage to plant, 0=no damage to plant; for pest or weed control at 1000 g/ha: Setaria faberi, 312 h, read-out: POST Application SETFA, damage to plant; for POST Application SETFA, damage to plant: 1000 g/ha
In short: as §1

Solanum nigrum (SOLNI) [5] = test: Post-emergence herbicidal glasshouse test; conditions: post-emergence (sprayed after 8 days cultivation), evaluated after 13 days, 100=total damage to plant, 0=no damage to plant; for pest or weed control at 1000 g/ha: Solanum nigrum, 312 h, read-out: POST Application SOLNI, damage to plant; for POST Application SOLNI, damage to plant: 1000 g/ha
In short: as §1

[6] = tested on: Alopecurus myosuroides (ALOMY); test: Pre-emergence herbicidal glasshouse test; conditions: pre-emergence (sprayed after one day cultivation), evaluated after 13 days, 100=total damage to plant, 0=no damage to plant; for pest or weed control at 1000 g/ha: Alopecurus myosuroides, 312 h, read-out: PRE Application ALOMY, damage to plant; for PRE Application ALOMY, damage to plant: 1000 g/ha
In short: as §1

[7] = tested on: Amaranthus retoflexus (AMARE); test: Pre-emergence herbicidal glasshouse test; conditions: pre-emergence (sprayed after one day cultivation), evaluated after 13 days, 100=total damage to plant, 0=no damage to plant; for pest or weed control at 1000 g/ha: Amaranthus retroflexus, 312 h, read-out: PRE Application AMARE, damage to plant; for PRE Application AMARE, damage to plant: 1000 g/ha
In short: as §1

[8] = tested on: Echinochloa crus-galli (ECHCG); test: Pre-emergence herbicidal glasshouse test; conditions: pre-emergence (sprayed after one day cultivation), evaluated after 13 days, 100=total damage to plant, 0=no damage to plant; for pest or weed control at 1000 g/ha: Echinochloa crus-galli, 312 h, read-out: PRE Application ECHCG, damage to plant; for PRE Application ECHCG, damage to plant: 1000 g/ha
In short: as §1

Setaria faberi (SETFA) [9] = test: Pre-emergence herbicidal glasshouse test; conditions: pre-emergence (sprayed after one day cultivation), evaluated after 13 days, 100=total damage to plant, 0=no damage to plant; for pest or weed control at 1000 g/ha: Setaria faberi, 312 h, read-out: PRE Application SETFA, damage to plant; for PRE Application SETFA, damage to plant: 1000 g/ha
In short: as §1

Solanum nigrum (SOLNI) [10] = test: Pre-emergence herbicidal glasshouse test; conditions: pre-emergence (sprayed after one day cultivation), evaluated after 13 days, 100=total damage to plant, 0=no damage to plant; for pest or weed control at 1000 g/ha: Solanum nigrum, 312 h, read-out: PRE Application SOLNI, damage to plant; for PRE Application SOLNI, damage to plant: 1000 g/ha
In short: as §1

In the case of `O=C1CCCC(=O)C1C(=O)c1cc2ccc(=O)n(CCc3ccccc3)c2nc1C(F)(F)F` [Compound 2.15, 2-{8-(2-phenylethyl)-7-oxo-7,8-dihydro-2-trifluoromethyl-[1,8]-naphthyridine-3-carbonyl}-cyclohexane-1,3-dione], the pest or weed control at 1000 g/ha [1] is reported as 40%, the pest or weed control at 1000 g/ha [2] is reported as 70% and the pest or weed control at 1000 g/ha [3] is reported as 80%. The pest or weed control at 1000 g/ha (Setaria faberi (SETFA) [4]) was 90%, the pest or weed control at 1000 g/ha (Solanum nigrum (SOLNI) [5]) was 90% and the pest or weed control at 1000 g/ha [6] was 10%. The pest or weed control at 1000 g/ha [7] was 30%, the pest or weed control at 1000 g/ha [8] was 90% and the pest or weed control at 1000 g/ha (Setaria faberi (SETFA) [9]) was 40%. For the same compound, the pest or weed control at 1000 g/ha (Solanum nigrum (SOLNI) [10]) was 90%.
In the case of `Cc1nc2nc(C(F)(F)C(F)(F)F)c(C(=O)C3C(=O)CCCC3=O)cc2cc1F` [Compound 1.94], the “POST Application ALOMY, damage to plant” value [1] is reported as 60, the “POST Application AMARE, damage to plant” value [2] is reported as 100 and the “POST Application ECHCG, damage to plant” value [3] is reported as 80. The “POST Application SETFA, damage to plant” value (Setaria faberi (SETFA) [4]) was 80, the “POST Application SOLNI, damage to plant” value (Solanum nigrum (SOLNI) [5]) was 90 and the “PRE Application ALOMY, damage to plant” value [6] was 20. For the same compound, the “PRE Application AMARE, damage to plant” value [7] was 100, the “PRE Application ECHCG, damage to plant” value [8] was 100 and the “PRE Application SETFA, damage to plant” value (Setaria faberi (SETFA) [9]) was 100. The “PRE Application SOLNI, damage to plant” value (Solanum nigrum (SOLNI) [10]) was 90.
In the case of `CCCCCCCC(=O)OC1=C(C(=O)c2cc3cc(F)c(C)nc3nc2C(F)(F)F)C(=O)CCC1` [Compound 4.22, n-Octanoic acid 2-(6-fluoro-7-methyl-2-trifluoromethyl-[1,8]-naphthyridine-3-carbonyl)-3-oxo-cyclohex-1-enyl ester], the pest or weed control at 1000 g/ha [1] is reported as 70%, the pest or weed control at 1000 g/ha [2] is reported as 90% and the pest or weed control at 1000 g/ha [3] is reported as 90%. It also gave a pest or weed control at 1000 g/ha (Setaria faberi (SETFA) [4]) of 80%, a pest or weed control at 1000 g/ha (Solanum nigrum (SOLNI) [5]) of 90% and a pest or weed control at 1000 g/ha [6] of 60%. It also gave a pest or weed control at 1000 g/ha [7] of 100%, a pest or weed control at 1000 g/ha [8] of 100% and a pest or weed control at 1000 g/ha (Setaria faberi (SETFA) [9]) of 100%. For the same compound, the pest or weed control at 1000 g/ha (Solanum nigrum (SOLNI) [10]) was 100%.
Compound `CCCCc1nc2nc(C(F)(F)F)c(C(=O)C3C(=O)CCCC3=O)cc2cc1F` [Compound 1.86, 2-[7-butyl-6-fluoro-2-trifluoromethyl-[1,8]-naphthyridine-3carbony]-cyclohexane-1,3-dione] has a pest or weed control at 1000 g/ha [1] of 70%, a pest or weed control at 1000 g/ha [2] of 100% and a pest or weed control at 1000 g/ha [3] of 80%. For the same compound, the pest or weed control at 1000 g/ha (Setaria faberi (SETFA) [4]) was 90%, the pest or weed control at 1000 g/ha (Solanum nigrum (SOLNI) [5]) was 90% and the pest or weed control at 1000 g/ha [6] was 80%. The pest or weed control at 1000 g/ha [7] was 100%, the pest or weed control at 1000 g/ha [8] was 100% and the pest or weed control at 1000 g/ha (Setaria faberi (SETFA) [9]) was 100%. The pest or weed control at 1000 g/ha (Solanum nigrum (SOLNI) [10]) was 100%.
In the case of `Cc1ccc2cc(C(=O)C3C(=O)CCCC3=O)c(C(F)F)nc2n1` [Compound 1.85, 2-(2-difluoromethyl-7-methyl-[1,8]-naphthyridine-3-carbonyl)-cyclohexane-1,3-dione], the pest or weed control at 1000 g/ha [1] is reported as 50%, the pest or weed control at 1000 g/ha [2] is reported as 80% and the pest or weed control at 1000 g/ha [3] is reported as 80%. It also gave a pest or weed control at 1000 g/ha (Setaria faberi (SETFA) [4]) of 80%, a pest or weed control at 1000 g/ha (Solanum nigrum (SOLNI) [5]) of 80% and a pest or weed control at 1000 g/ha [6] of 10%. The pest or weed control at 1000 g/ha [7] was 90%, the pest or weed control at 1000 g/ha [8] was 100% and the pest or weed control at 1000 g/ha (Setaria faberi (SETFA) [9]) was 80%. The pest or weed control at 1000 g/ha (Solanum nigrum (SOLNI) [10]) was 100%.
In the case of `CCc1ccc2cc(C(=O)C3C(=O)CCCC3=O)c(C(F)(F)F)nc2n1` [Compound 1.3, 2-[7-ethyl-trifluoromethyl-[1,8]-naphthyridine-3-carbony]-cyclohexane-1,3-dione], the “POST Application ALOMY, damage to plant” value [1] is reported as 70, the “POST Application AMARE, damage to plant” value [2] is reported as 100 and the “POST Application ECHCG, damage to plant” value [3] is reported as 80. The “POST Application SETFA, damage to plant” value (Setaria faberi (SETFA) [4]) was 90, the “POST Application SOLNI, damage to plant” value (Solanum nigrum (SOLNI) [5]) was 90 and the “PRE Application ALOMY, damage to plant” value [6] was 80. The “PRE Application AMARE, damage to plant” value [7] was 90, the “PRE Application ECHCG, damage to plant” value [8] was 100 and the “PRE Application SETFA, damage to plant” value (Setaria faberi (SETFA) [9]) was 80. For the same compound, the “PRE Application SOLNI, damage to plant” value (Solanum nigrum (SOLNI) [10]) was 100.
